Patent EP0285356A2, “Dopamine-beta-hydroxylase inhibitors” (SMITHKLINE BECKMAN CORPORATION, priority 1987, dated 1988)
Where two headings read alike, the source gives them in different places.

Columns and labels:
[1] = target: T1, dopamine-β-hydroxylase (DBH) (Homo sapiens, UniProt P09172); assay: in vitro DBH inhibition, conversion of tyramine to octopamine in the presence of DBH; type: biochemical
T1 sequence (P09172 1-617): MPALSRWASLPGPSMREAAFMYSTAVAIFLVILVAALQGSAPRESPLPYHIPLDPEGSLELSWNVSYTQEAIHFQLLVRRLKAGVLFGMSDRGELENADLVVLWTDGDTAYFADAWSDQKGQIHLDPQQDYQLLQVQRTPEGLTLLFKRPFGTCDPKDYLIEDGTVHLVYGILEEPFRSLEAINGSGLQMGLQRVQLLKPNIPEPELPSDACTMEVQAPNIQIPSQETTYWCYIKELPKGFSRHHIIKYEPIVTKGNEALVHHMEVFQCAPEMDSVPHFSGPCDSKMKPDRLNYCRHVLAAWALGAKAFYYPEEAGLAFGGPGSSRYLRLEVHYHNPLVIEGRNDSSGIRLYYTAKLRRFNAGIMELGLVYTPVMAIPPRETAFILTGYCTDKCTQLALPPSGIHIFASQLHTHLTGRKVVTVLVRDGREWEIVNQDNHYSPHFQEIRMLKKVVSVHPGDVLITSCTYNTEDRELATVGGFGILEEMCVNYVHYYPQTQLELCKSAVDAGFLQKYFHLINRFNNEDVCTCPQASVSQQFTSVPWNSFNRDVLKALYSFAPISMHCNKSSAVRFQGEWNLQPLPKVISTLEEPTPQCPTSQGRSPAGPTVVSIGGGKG
Method: Listed in Table I are the compounds of the invention that were tested for in vitro DBH inhibition by a standard procedure for assaying conversion of tyramine to octopamine in the presence of DBH. J. J. Pisano, et al., Biochem. Biophys, Acta, 43, 566-568 (1960). Octopamine was assayed following sodium periodate oxidation to p-hydroxybenzaldehyde by measuring spectrophotometric absorbance at 330 nm. In Table I, inhibition is given in micromolar concentration of compound at which DBH activity was halved (IC₅₀).

[2] = test system: spontaneously hypertensive rats; assay: mean arterial blood pressure in spontaneously hypertensive rats; type: in vivo; conditions: 50 mg/kg intraperitoneally, compared to vehicle-treated controls, approximate
Method: Further, spontaneously hypertensive rats were treated with a suspension or solution of 1-(2-furanylmethyl)imidazole-2-thiol at a dose of 50 mg/kg intraperitoneally, and mean arterial blood pressure was monitored for 260 minutes using indwelling cannulae in the tail arteries. […] Maximal blood pressure reduction was approximately 50 to 55 mm Hg.

[3] = concentration of compound at which DBH activity was halved, tyramine to octopamine, absorbance at 330 nm, read-out: DBH IC50

Structure (SMILES) | IC50 [1, 3] | time after treatment to significant blood pressure reductions [2] | IC50 [1]
Sc1nccn1Cc1ccco1 [1-(2-furanylmethyl)imidazole-2-thiol] | 56 µM | ≤ 30 min | 
Sc1nccn1Cc1ccoc1 [1-(3-furanylmethyl)imidazole-2-thiol] | 36 µM |  | 
CCCCc1ccc(C(=O)O)nc1 [fusaric acid, reference compound] |  |  | 0.8 µM
